Laboratory results: patent publication US8530465B2, “1, 2-disubstituted amido-anthraquinone derivatives, preparation method and application thereof” (National Defense Medical Center, priority 2010, dated 2013)

Tests used:
H1299 = assay: MTT assay, PhTERT-SEAP (H1299); assay type: cell-based, human; conditions: H1299; for cell toxicity activity: low concentration (1 μM)
Procedure: (§1) Further, cells were subjected to MTT assay to compare the relative toxicity or effect of each compound on cell proliferation and activity.
(§2) The above-described cells are cultured in a 96-well plate, to which was added with 25 μl MTT solution, and cultured in a 37° C. carbon dioxide incubator for 4 hours. Then, 100 μl Lysis buffer is added and incubated in a 37° C. carbon dioxide incubator overnight. An ELISA reader (Bio-Rad Model 450) is used to read optical density (O.D.) at 550 nm.

[1] = MTT assay, PhTERT-SEAP (H1299); assay type: cell-based, human; conditions: human, H1299 cells carrying the PhTERT-SEAP reporter, PhTERT-SEAP (H1299); for viability at 1 μM: Conc. 1 μM, read-out: Relative MTT viability (%); for viability at 10 μM: Conc. 10 μM
Procedure: as §1, §2

hTERT = assay: Secreted alkaline phosphatase (SEAP) assay, PhTERT-SEAP (H1299); assay type: cell-based; conditions: Homo sapiens, 24 hours; for activity at 1 µM: NCI-H1299, Conc. 1 μM, read-out: Relative SEAP activity (%); for activity at 10 µM: NCI-H1299, Conc. 10 μM; for activity at 10 µM / activity at 100 µM: read-out: Relative SEAP activity (%) (converted); for activity at 100 µM: NCI-H1299, Conc. 100 μM
Procedure: H1299 were grown in RPMI 1640 media supplemented with 10% fetal bovine serum, 100 units/mL penicillin and […] streptomycin in a humidified atmosphere with 5% CO2 at 37° C. Culture media were changed every three days. To establish stable cell lines that the expression of hTERT could be monitored by a reporter system, a about 3.3 kbp DNA fragment ranging from −3338 to +1 bp of the hTERT gene (hTERT promoter, PhTERT) was subcloned upstream to a secreted alkaline phosphatase gene (SEAP) and transfected into H1299 by electroporation. The stable clones were selected using G418. The stable clones derived from H1299 were cultured using conditions that are similar to their parental cells.
Secreted alkaline phosphatase was used as the reporter system to monitor the transcriptional activity of hTERT. Here, about 10^4 cells each were grown in 96-well plates and incubated at 37° C. for 24 hours and changed with fresh media. Varying amounts of drugs were added and cells were incubated for another 24 hours. Culture media were collected and heated at 65° C. for 10 min to inactivate heat-labile phosphatases. An equal amount of SEAP buffer (2 M diethanolamine, 1 mM MgCl2, and 20 mM L-homoarginine) was added to the media and p-nitrophenyl phosphate was added to a final concentration of 12 mM. Absorptions at 405 nm were taken, and the rate of absorption increase is determined (the increasing rate of absorbance at 405 nm was used to represent the activity of SEAP).

[2] = read-out: Relative MTT viability (%) (converted)

| melting point | SMILES | cell toxicity / inhibitory activity compared with mitoxantrone and doxorubicin (H1299; SEAP and MTT analysis) | viability at 1 μM [1] | activity at 1 µM (hTERT) | activity at 10 µM (hTERT) | activity at 100 µM (hTERT) | cell toxicity activity (H1299) | viability at 10 μM [1, 2] | cell toxicity (H1299; 1 μM, 10 μM, and 100 μM) | viability at 100 μM ([1]; Conc. 100 μM, read-out: Relative MTT viability (%) (converted)) | inhibitory activity among compounds CC-35 to CC-50 (H1299; SEAP and MTT analysis) |
| --- | --- | --- | --- | --- | --- | --- | --- | --- | --- | --- | --- |
| 175 to 176 °C | CC(Cl)C(=O)Nc1c(NC(=O)CCl)ccc2c1C(=O)c1ccccc1C2=O (stereo not shown) [CC-06, 1-[(2-chloropropanyl)amido]-2-(chloroacetamido)-anthraquinone] | higher cell toxicity activity than mitoxantrone and doxorubicin | 9.01 ± 1.66% | 12.1 ± 0.44% | 1.04% | 2.38% | – | – | – | – | – |
| 197 to 198 °C | O=C(CCl)Nc1ccc2c(c1NC(=O)c1cccc(F)c1)C(=O)c1ccccc1C2=O [CC-14, 1-(3-fluorobenzamido)-2-(chloroacetamido)-anthraquinone] | inhibitory activity even better than mitoxantrone and doxorubicin | 18.3 ± 13.5% | 26.9 ± 11.6% | 1.77% | 0.97% | very strong cell toxicity activity | 8.06% | – | – | – |
| 184 to 185 °C | O=C(CCl)Nc1ccc2c(c1NC(=O)c1ccc(F)cc1)C(=O)c1ccccc1C2=O [CC-15, 1-(4-fluorobenzamido)-2-(chloroacetamido)-anthraquinone] | inhibitory activity even better than mitoxantrone and doxorubicin | 10.9 ± 2.92% | 11.9 ± 9.77% | 2.58% | 0.52% | very strong cell toxicity activity | 4.2% | – | – | – |
| 210 to 211 °C | Cc1ccc(C(=O)Nc2c(NC(=O)CN3CCN(CCO)CC3)ccc3c2C(=O)c2ccccc2C3=O)cc1 [CC-44, 1-(4-methylbenzamido)-2-[2-(4-(2-hydroxyethyl)piperazino]acetylamino]-anthraquinone] | – | 71.5 ± 5.12% | 77 ± 9.13% | 8.09% | -1.24% | – | 44.8% | – | – | higher inhibitory activity |

| SMILES | melting point | cell toxicity / inhibitory activity compared with mitoxantrone and doxorubicin (H1299; SEAP and MTT analysis) | viability at 1 μM [1] | activity at 1 µM (hTERT) | activity at 10 µM (hTERT) | activity at 100 µM (hTERT) | cell toxicity activity (H1299) | viability at 10 μM [1, 2] | cell toxicity (H1299; 1 μM, 10 μM, and 100 μM) | viability at 100 μM ([1]; Conc. 100 μM, read-out: Relative MTT viability (%) (converted)) | inhibitory activity among compounds CC-35 to CC-50 (H1299; SEAP and MTT analysis) |
| --- | --- | --- | --- | --- | --- | --- | --- | --- | --- | --- | --- |
| O=C(CCl)Nc1ccc2c(c1NC(=O)CCl)C(=O)c1ccccc1C2=O [CC-01, 1,2-bis-(chloroacetamido)-anthraquinone] | 254 to 255 °C | higher cell toxicity activity than mitoxantrone and doxorubicin | 8.1 ± 3.87% | 15.9 ± 1.06% | 13.7% | 13.7% | – | – | – | – | – |
| O=C(CN1CCN(c2ccccc2)CC1)Nc1ccc2c(c1NC(=O)c1ccccc1)C(=O)c1ccccc1C2=O [CC-33, 1-(benzamido)-2-[2-(4-phenylpiperazino)acetylamino]-anthraquinone] | 225 to 226 °C | – | 86.3 ± 2.6% | 85.9 ± 8.01% | 97.9 ± 4.82% | 89.6 ± 3.37% | – | 110 ± 8.53% | no significant cell toxicity | 88 ± 6.32% | – |
